The values below come from ChEMBL document CHEMBL1140134, “Structure-guided design of N-phenyl tertiary amines as transrepression-selective liver X receptor modulators with anti-inflammatory activity” (J Med Chem, 2008).

The structures appear in SMILES notation.

Series [1] addresses T1, Oxysterols receptor LXR-alpha (Homo sapiens, UniProt Q13133).
T1 sequence (Q13133 whole entry): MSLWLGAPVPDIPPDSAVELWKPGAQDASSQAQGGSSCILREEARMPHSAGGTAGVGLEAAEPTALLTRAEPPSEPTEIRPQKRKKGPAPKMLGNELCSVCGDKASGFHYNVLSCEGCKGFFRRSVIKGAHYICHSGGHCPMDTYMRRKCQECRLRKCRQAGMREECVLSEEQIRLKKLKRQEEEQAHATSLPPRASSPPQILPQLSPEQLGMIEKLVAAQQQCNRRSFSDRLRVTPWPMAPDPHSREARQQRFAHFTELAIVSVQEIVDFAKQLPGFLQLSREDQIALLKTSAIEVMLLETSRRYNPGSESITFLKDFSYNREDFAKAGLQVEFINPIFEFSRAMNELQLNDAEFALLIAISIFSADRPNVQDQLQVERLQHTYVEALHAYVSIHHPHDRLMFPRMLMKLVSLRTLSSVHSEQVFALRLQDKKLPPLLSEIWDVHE
Put plainly: Displacement of [N-methyl-3H]GW0438 from human biotinylated LXRalpha ligand binding domain.

Series [2] relates to THP-1. Briefly: Antiinflammatory activity against human THP1 cells assessed as inhibition of LPS-stimulated IL6 production after 6 hrs by ELISA. Format: functional, cell-based. As to conditions: THP-1, 6 h. For orientation: An ELISA detects its analyte on a solid surface through an enzyme-linked reagent.
Series [3] relates to THP-1. Put plainly: Antiinflammatory activity against human THP1 cells assessed as inhibition of LPS-stimulated IL6 production by ELISA relative to N-(4-(1,1,1,3,3,3-hexafluoro-2-hydroxypropan-2-yl)phenyl)-N-(2,2,2-trifluoroethyl)benzenesulfonamide. Format: functional.
Series [4] concerns Huh-7. Put plainly: Lipogenic activity against human HuH7 cells assessed as triglyceride accumulation at 10 uM after 4 days relative to N-(4-(1,1,1,3,3,3-hexafluoro-2-hydroxypropan-2-yl)phenyl)-N-(2,2,2-trifluoroethyl)benzenesulfonamide. Format: functional.
A short description of series [5]: Metabolic stability in human HuH7 cells at 1 uM after 24 hrs. As to conditions: read-out: Stability. In kind it is ADME, cell-based, Huh-7.
Series [6] deals with T2, Nuclear receptor subfamily 1 group I member 2 (Homo sapiens, UniProt O75469).
T2 sequence (O75469 whole entry): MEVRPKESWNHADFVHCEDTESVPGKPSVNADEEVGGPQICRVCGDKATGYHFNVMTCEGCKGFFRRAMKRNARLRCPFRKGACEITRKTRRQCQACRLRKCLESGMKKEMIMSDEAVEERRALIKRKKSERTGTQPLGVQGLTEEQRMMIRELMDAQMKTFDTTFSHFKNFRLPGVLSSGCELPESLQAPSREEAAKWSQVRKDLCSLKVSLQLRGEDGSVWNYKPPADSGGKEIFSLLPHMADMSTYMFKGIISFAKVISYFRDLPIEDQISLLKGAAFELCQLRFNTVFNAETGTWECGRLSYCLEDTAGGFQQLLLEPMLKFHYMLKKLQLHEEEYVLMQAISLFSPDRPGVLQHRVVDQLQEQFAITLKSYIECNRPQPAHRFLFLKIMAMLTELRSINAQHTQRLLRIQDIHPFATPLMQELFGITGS
Put plainly: Inhibition of human PXR.

Series [7] deals with T1, Oxysterols receptor LXR-alpha. Briefly: Activation of LXRalpha by GAL4 reporter gene assay. (A reporter such as luciferase makes a cellular process visible.)
In series [8] the target is Oxysterols receptor LXR-beta (Homo sapiens, UniProt P55055).
Chain of Oxysterols receptor LXR-beta (P55055 whole entry): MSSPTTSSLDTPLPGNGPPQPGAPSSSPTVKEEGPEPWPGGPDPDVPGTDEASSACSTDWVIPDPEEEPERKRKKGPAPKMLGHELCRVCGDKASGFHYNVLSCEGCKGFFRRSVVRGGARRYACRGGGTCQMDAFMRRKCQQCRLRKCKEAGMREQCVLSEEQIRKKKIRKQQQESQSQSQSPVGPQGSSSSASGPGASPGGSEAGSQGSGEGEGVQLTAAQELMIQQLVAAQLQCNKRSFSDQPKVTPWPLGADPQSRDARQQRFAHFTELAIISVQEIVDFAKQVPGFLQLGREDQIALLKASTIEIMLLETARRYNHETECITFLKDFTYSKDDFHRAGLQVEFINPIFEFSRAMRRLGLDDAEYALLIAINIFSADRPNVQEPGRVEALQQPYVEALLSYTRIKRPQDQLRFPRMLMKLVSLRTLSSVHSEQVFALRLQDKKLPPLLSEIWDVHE

Consider `CCCCN(Cc1cc(Cl)cc(Cl)c1O)c1ccc(C(O)(C(F)(F)F)C(F)(F)F)cc1`, for which the IC50 (usually the midpoint of a concentration-inhibition curve) in series [1] worked out at 890 nM; in series [2], 1290 nM. Further, the Activity in series [3] is below 0.5.
With `CCCCN(Cc1cc(Cl)c(OC)c(Cl)c1)c1ccc(C(O)(C(F)(F)F)C(F)(F)F)cc1`, the IC50 was 170 nM in series [1] and 15 nM in series [2]. The Activity in series [3] came to 1; in series [4] it was 0.8.
With `CCCCN(Cc1ccc(O)c(Cl)c1)c1ccc(C(O)(C(F)(F)F)C(F)(F)F)cc1`, the results for the IC50 in series [1] and in series [2] were 560 nM and 25 nM, respectively. Besides, the Activity was found to be 1 in series [3] and 0.6 in series [4].
The like results for `CCCCN(Cc1ccccc1O)c1ccc(C(O)(C(F)(F)F)C(F)(F)F)cc1` were, in that order, 180 nM, 35 nM, 1 and 0.6.
On to `CCCCN(Cc1cccc(O)c1)c1ccc(C(O)(C(F)(F)F)C(F)(F)F)cc1`, for which the IC50 in series [1] came out at 160 nM; in series [2], 35 nM. The Activity in series [3] worked out at 1; in series [4], 0.5.
The compound `CCCCN(Cc1ccc(O)cc1)c1ccc(C(O)(C(F)(F)F)C(F)(F)F)cc1` came in with an IC50 in series [1] of 955 nM.
Consider `CCCCN(Cc1cc(Cl)c(OC)c(OC)c1)c1ccc(C(O)(C(F)(F)F)C(F)(F)F)cc1`, for which the figures for the IC50 in series [1] and in series [2] were 165 nM and 15 nM, respectively. Also, the results for the Activity in series [3] and in series [4] were 1 and 0.4, respectively.
With `CCCCN(Cc1cc(Cl)c(O)c(Cl)c1)c1ccc(C(O)(C(F)(F)F)C(F)(F)F)cc1`, the IC50 in series [1] was 180 nM; in series [2] it was 15 nM. Further, the Activity in series [3] is 1; in series [4] it was below 0.1. For the same compound, in series [5], the remaining at 24 h, 1 µM was found to be 40%. Besides, the EC50 (in general, the concentration at which the effect is half-maximal) in series [6] stood at 250 nM; in series [7], 3 µM.
`CCCCN(Cc1cc(Cl)cc(Cl)c1)c1ccc(C(O)(C(F)(F)F)C(F)(F)F)cc1`: the IC50 in series [1] is 195 nM; in series [2], 10 nM. Besides, the Activity is reported as 1 in series [3] and 0.7 in series [4].
Consider `CCCCN(Cc1cc(OC(F)(F)F)ccc1O)c1ccc(C(O)(C(F)(F)F)C(F)(F)F)cc1`, for which the half-maximal inhibitory concentration (IC50) in series [1] stood at 190 nM. Further, the Activity in series [4] was 1.
`CCCCN(Cc1ccncc1)c1ccc(C(O)(C(F)(F)F)C(F)(F)F)cc1`: the IC50 in series [1] is 90 nM; in series [2], 20 nM. Besides, the Activity worked out at 1 in series [3] and 1.1 in series [4].
The like results for `CCCCN(Cc1cccc(OCCO)c1)c1ccc(C(O)(C(F)(F)F)C(F)(F)F)cc1` were, in that order, 115 nM, 5 nM, 1 and 1.8.
Take `CCCCN(Cc1ccccn1)c1ccc(C(O)(C(F)(F)F)C(F)(F)F)cc1`: the IC50 came out at 120 nM in series [1] and 20 nM in series [2]. The Activity in series [3] is 1; in series [4], 1.1.
For the compound `CCCCN(Cc1ccccc1)c1ccc(C(O)(C(F)(F)F)C(F)(F)F)cc1`, the figures for the IC50 in series [1] and in series [2] were 170 nM and 25 nM, respectively. Besides, the Activity in series [3] came to 1; in series [4], 0.8.
In series [1], `CN(Cc1ccccc1)c1ccc(C(O)(C(F)(F)F)C(F)(F)F)cc1` gave an IC50 of 310 nM. Moreover, the Activity in series [4] is above 0.5.
As to `CCCCN(Cc1cc(Cl)ccc1O)c1ccc(C(O)(C(F)(F)F)C(F)(F)F)cc1`, the IC50 in series [1] stood at 220 nM; in series [2] it was 55 nM. Besides, the Activity in series [3] and in series [4] was 1 in each case.
`OC(c1ccc(N(Cc2ccccc2)Cc2ccccc2)cc1)(C(F)(F)F)C(F)(F)F` yielded an IC50 in series [1] of 315 nM. The Activity in series [4] is listed as above 0.5.
For the compound `CCCCN(Cc1cccc(F)c1O)c1ccc(C(O)(C(F)(F)F)C(F)(F)F)cc1`, the IC50 in series [1] amounted to 615 nM; in series [2], 60 nM. Further, the values for the Activity in series [3] and in series [4] were 1 and 1.9, respectively.
As to `CCCCN(Cc1cc(Cl)c(O)c(OC)c1)c1ccc(C(O)(C(F)(F)F)C(F)(F)F)cc1`, the IC50 in series [1] came to 775 nM; in series [2], 10 nM. For the same compound, the results for the Activity in series [3] and in series [4] were 1 and below 0.2, respectively.
For the compound `O=C(O)Cc1cccc(OCCCN(Cc2cccc(C(F)(F)F)c2Cl)CC(c2ccccc2)c2ccccc2)c1`, the IC50 in series [1] amounted to 235 nM; in series [2], 20 nM; in series [8], 30 nM. Moreover, the Activity in series [3] and in series [4] was 1 throughout.
`O=S(=O)(c1ccccc1)N(CC(F)(F)F)c1ccc(C(O)(C(F)(F)F)C(F)(F)F)cc1` [T091317]: the IC50 in series [2] was 100 nM. In addition, the Activity in series [3] and in series [4] was 1 throughout. For the same compound, the remaining at 24 h, 1 µM in series [5] is 65%.
